Assay [1] relates to HeLa cells. In words: Assay 1 cell proliferation measurement (CTG, 72 h), HeLa. The assay is classed as cell-based, human. The settings on record: Homo sapiens, HeLa; Assay 1, 72 h, Cell Titer Glo; read-out: HeLa IC50 [nM] (Cervical cancer). As to the method: (§1) Cell Proliferation Measurement
(§2) The antiproliferative activity of the compounds of the general formula (I) was examined in vitro in human cancer cells. For this purpose, the appropriate number of cells (Hela: 800; SK-MEL-3: 1000; A549: 800) were plated in 384-well plates with appropriate growth medium ((A549: DMEM/Ham's F12 (Biochrom; #FG 4815 with stabile Glutamine), FCS 10% final (Biochrom; #S 0415); Hela: DMEM/Ham's F12 (Biochrom; #FG 4815 with stabile Glutamine), FCS 10% final (Biochrom; #S 0415); SK-MEL-3: McCoy's 5A (Biochrom; #F 1015), FCS 10% final (Biochrom; #S 0415), L-Alanyl-L-Glutamine final: 2 mM, (Biochrom; #K 0302)) and incubated at 37° C. overnight. After 24 h, cells on one plate (0 h plate) were treated with 30 μl/cavity of CTG solution (Promega Cell Titer Glo (catalogue #G755B and G756B)) and incubated at room temperature for 10 min, and luminescence was measured by means of a VICTOR V (Perkin Elmer), in order to determine cell viability on commencement of treatment. The cells on the test plate were treated with the compounds of the general formula (I) as and incubated at 37° C. for 72 h. The compounds were added to the cells by means of an HP D300 digital dispenser in a 10-step 2.5-fold dilution series generally starting at a maximum final drug concentration of 100 nM. As control, the cells were treated with vehicle (DMSO at 0.3% final concentration). After 72 h, the cells were treated with 30 μl/cavity of CTG solution (Promega Cell Titer Glo (catalogue #G755B and G756B)) and incubated at room temperature for 10 min. and luminescence was measured by means of a VICTOR V (Perkin Elmer), in order to determine cell viability at the end of treatment. The percentage effect on cell growth and the IC50 derived therefrom were determined for each test substance using the values from the 0 h plate […] and the DMSO control […]. The IC50 values were calculated using a 4-parameter fit.

The test system of assay [2] is SK-MEL-3 cells. In words: Assay 1 cell proliferation measurement (CTG, 72 h), SK-MEL-3. The assay is classed as cell-based, human. The settings on record: Homo sapiens, SK-MEL3; Assay 1, 72 h, Cell Titer Glo; read-out: SK-MEL-3 IC50 [nM] (melanoma). As to the method: as §1, §2
Assay [3] concerns the target human full length PDE3A (Homo sapiens (Human), UniProt Q14432). In words: Assay 4 PDE3A enzyme inhibition (3H-cAMP SPA). The assay is classed as biochemical. The settings on record: Sf9 cell extract. As for the experimental part: Assay 4 Method for PDE3A Enzyme Inhibition
(§3) The commercially available 3H-cAMP Scintillation Proximity Assay (SPA, Perkin Elmer) system was used for enzyme inhibition studies. For the determination of the in vitro effect of example compounds on the PDE3A reactions 2 μl of the respective example compound solution in DMSO (serial dilutions) were placed in wells of microtiter plates (Isoplate-96/200W; Perkin Elmer). 50 μl of a dilution of PDE3A cell extract from Sf9 cells overexpressing human full length PDE3A (SB Drug Discovery, UK) in buffer A (50 mM Tris/HCl pH 7.5, 8.3 mM MgCl2, 1.7 mM EDTA, 0.2% BSA) was added. The dilution of the PDE3A cell extract was chosen such that the reaction kinetics was linear and less than 70% of the substrate was consumed (typical dilution 1:5000). The reaction was started by addition of 50 μl (0.025 μCi) of 1:2000 in buffer A w/o BSA diluted substrate [8-3H]adenosine 3′, 5′-cyclic phosphate (1 μCi/μl; Perkin Elmer). After incubation at room temperature for 60 min, the reaction was stopped by addition of 25 μl of a suspension containing 18 mg/ml yttrium scintillation proximity beads (Perkin Elmer) in water. The microtiter plates were sealed and measured in a Microbeta scintillation counter (PerkinElmer Wallac). IC50 values were determined from sigmoidal curves by plotting percentage PDE3A activity vs log compound concentration.

For assay [4], the target named is human full length PDE3B (Homo sapiens (Human), UniProt Q13370). In words: Assay 5 PDE3B enzyme inhibition (3H-cAMP SPA). The assay is classed as biochemical. The following applies: Sf9 cell extract. As to the method: as §3, with “PDE3B” for “PDE3A”, “1:6000).” for “1:5000).”

Each structure is given as a SMILES string. pIC50: −log10 of the molar value.

Sequence of human full length PDE3A (Q14432 whole entry): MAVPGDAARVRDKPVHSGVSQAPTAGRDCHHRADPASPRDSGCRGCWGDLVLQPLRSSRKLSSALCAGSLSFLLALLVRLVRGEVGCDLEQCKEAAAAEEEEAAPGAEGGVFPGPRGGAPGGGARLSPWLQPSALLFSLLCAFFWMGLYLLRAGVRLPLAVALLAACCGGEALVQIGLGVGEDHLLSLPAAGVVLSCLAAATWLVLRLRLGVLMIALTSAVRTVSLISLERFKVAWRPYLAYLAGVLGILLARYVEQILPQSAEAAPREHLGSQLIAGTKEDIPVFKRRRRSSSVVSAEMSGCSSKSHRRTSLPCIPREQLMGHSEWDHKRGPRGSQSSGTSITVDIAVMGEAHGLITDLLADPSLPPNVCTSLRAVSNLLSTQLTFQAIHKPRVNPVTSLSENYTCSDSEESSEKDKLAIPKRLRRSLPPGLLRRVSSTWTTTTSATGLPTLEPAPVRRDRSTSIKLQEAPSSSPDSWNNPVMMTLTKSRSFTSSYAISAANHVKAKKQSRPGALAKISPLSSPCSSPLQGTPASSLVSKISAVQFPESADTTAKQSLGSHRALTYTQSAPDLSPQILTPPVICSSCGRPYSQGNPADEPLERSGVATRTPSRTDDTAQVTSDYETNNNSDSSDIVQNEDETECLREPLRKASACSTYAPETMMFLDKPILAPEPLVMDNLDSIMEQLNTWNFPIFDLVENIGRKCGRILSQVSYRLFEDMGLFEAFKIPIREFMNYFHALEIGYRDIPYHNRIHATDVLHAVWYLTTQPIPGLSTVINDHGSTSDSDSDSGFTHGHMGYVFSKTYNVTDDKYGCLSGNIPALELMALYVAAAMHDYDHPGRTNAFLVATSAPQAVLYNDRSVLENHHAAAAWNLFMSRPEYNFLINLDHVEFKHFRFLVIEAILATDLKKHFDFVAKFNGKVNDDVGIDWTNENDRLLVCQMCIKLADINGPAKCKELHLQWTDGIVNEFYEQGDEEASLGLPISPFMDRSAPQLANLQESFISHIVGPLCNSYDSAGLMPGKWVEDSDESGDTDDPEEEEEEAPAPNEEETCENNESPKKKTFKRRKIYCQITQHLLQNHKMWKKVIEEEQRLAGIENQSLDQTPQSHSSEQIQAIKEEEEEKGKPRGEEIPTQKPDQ
Sequence of human full length PDE3B (Q13370 whole entry): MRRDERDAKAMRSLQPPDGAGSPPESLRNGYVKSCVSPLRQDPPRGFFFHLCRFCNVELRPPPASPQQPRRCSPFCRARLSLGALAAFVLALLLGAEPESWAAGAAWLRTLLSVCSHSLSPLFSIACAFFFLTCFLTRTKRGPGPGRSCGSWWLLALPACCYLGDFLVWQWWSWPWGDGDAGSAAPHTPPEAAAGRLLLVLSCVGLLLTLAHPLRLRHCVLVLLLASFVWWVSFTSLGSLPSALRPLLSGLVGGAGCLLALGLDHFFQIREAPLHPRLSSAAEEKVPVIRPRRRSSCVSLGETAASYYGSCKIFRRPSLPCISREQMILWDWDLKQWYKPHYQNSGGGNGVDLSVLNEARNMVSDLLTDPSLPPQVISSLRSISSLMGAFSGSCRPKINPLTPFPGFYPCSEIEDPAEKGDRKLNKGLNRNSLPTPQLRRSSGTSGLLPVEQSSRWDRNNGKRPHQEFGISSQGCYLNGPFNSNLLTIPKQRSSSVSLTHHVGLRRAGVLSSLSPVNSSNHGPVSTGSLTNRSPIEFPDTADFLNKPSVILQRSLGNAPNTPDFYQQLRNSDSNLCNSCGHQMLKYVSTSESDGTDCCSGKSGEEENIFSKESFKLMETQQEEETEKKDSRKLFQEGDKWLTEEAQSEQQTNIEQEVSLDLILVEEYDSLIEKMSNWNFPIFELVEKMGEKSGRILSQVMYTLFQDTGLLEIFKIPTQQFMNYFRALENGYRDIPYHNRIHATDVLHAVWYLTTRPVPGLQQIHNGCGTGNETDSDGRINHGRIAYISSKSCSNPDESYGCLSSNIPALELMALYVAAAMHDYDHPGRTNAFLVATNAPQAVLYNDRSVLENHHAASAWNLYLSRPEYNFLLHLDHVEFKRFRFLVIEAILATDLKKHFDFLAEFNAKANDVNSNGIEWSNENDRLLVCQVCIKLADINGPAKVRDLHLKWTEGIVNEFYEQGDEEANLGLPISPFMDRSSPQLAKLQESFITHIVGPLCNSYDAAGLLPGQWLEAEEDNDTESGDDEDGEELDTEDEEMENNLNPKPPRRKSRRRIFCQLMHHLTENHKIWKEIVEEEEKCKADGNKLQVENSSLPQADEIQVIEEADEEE

For `CCc1ccccc1-c1ccc(C2=NNC(=O)O[C@H]2C)cc1C(F)(F)F` [Example 186, (6S)-5-[2′-Ethyl-2-(trifluoromethyl)[1,1′-biphenyl]-4-yl]-6-methyl-3,6-dihydro-2H-1,3,4-oxadiazin-2-one], the IC50 in assay [1] amounted to 61 nM; in assay [2], 71 nM.

Consider `Nc1ncc(-c2ccc(C3=NNC(=O)OC3)cc2F)cn1` [Example 330, 5-[4-(2-aminopyrimidin-5-yl)-3-fluorophenyl]-3,6-dihydro-2H-1,3,4-oxadiazin-2-one], for which the IC50 in assay [1] and in assay [2] was greater than 100 nM throughout.

Consider `Cc1cc(C2=NNC(=O)OC2)ccc1-c1cccnc1` [Example 13, 5-[3-Methyl-4-(pyridin-3-yl)phenyl]-3,6-dihydro-2H-1,3,4-oxadiazin-2-one], for which the results for the IC50 in assay [1] and in assay [2] were 27 nM and 82 nM, respectively.

As for `O=C1NN=C(c2ccc(N3CCC(O)CC3)c(C(F)(F)F)c2)CO1` [Example 227, 5-[4-(4-Hydroxypiperidin-1-yl)-3-(trifluoromethyl)phenyl]-3,6-dihydro-2H-1,3,4-oxadiazin-2-one], the IC50 in assay [1] worked out at 1 nM. The negative logarithm of the IC50 (pIC50) in assay [3] is 7.89; in assay [4], 8.05.

For the compound `O=C1NN=C(c2ccc(NCCn3cccn3)c(C(F)(F)F)c2)CO1` [Example 238, 5-[4-{[2-(1H-Pyrazol-1-yl)ethyl]amino}-3-(trifluoromethyl)phenyl]-3,6-dihydro-2H-1,3,4-oxadiazin-2-one], in assay [1], the IC50 stood at 7 nM. The figures for the pIC50 in assay [3] and in assay [4] were 7.06 and 6.52, respectively.

Regarding `CC(C)(CO)CNc1ccc(C2=NNC(=O)OC2)cc1C(F)(F)F` [Example 231, 5-{4-[(3-Hydroxy-2,2-dimethylpropyl)amino]-3-(trifluoromethyl)phenyl}-3,6-dihydro-2H-1,3,4-oxadiazin-2-one], in assay [1], the IC50 turned out to be 2 nM. For the same compound, the figures for the negative-log IC50 (pIC50) in assay [3] and in assay [4] were 7.00 and 6.96, respectively.

On to `O=C1NN=C(c2ccc(N3CC4(C3)CS(=O)(=O)C4)c(C(F)(F)F)c2)CO1` [Example 255, 6-[4-(2-Oxo-3,6-dihydro-2H-1,3,4-oxadiazin-5-yl)-2-(trifluoromethyl)phenyl]-2λ^6-thia-6-azaspiro[3.3]heptane-2,2-dione], for which the IC50 in assay [1] was determined as 5 nM. In addition, the pIC50 was 7.00 in assay [3] and 7.12 in assay [4].

For `O=C1NN=C(c2ccc(NCc3ncccn3)c(C(F)(F)F)c2)CO1` [Example 244, 5-[4-{[(Pyrimidin-2-yl)methyl]amino}-3-(trifluoromethyl)phenyl]-3,6-dihydro-2H-1,3,4-oxadiazin-2-one], the IC50 in assay [1] was 3 nM. Moreover, the values for the pIC50 in assay [3] and in assay [4] were 6.92 and 6.82, respectively.

For `CCOC1CN(c2ccc(C3=NNC(=O)OC3)cc2C(F)(F)F)C1` [Example 243, 5-[4-(3-Ethoxyazetidin-1-yl)-3-(trifluoromethyl)phenyl]-3,6-dihydro-2H-1,3,4-oxadiazin-2-one], the IC50 in assay [1] was determined as 6 nM. In addition, the pIC50 in assay [3] was 7.32; in assay [4], 7.00.

`O=C1NN=C(c2ccc(N3CC[C@H](O)C3)c(C(F)(F)F)c2)CO1` [Example 234, 5-{4-[(3S)-3-Hydroxypyrrolidin-1-yl]-3-(trifluoromethyl)phenyl}-3,6-dihydro-2H-1,3,4-oxadiazin-2-one]: in assay [1], the IC50 came out at 2 nM. The pIC50 was 7.11 in assay [3] and 7.14 in assay [4].

Regarding `NC(=O)C1CCCN(c2ccc(C3=NNC(=O)OC3)cc2C(F)(F)F)C1` (racemic) [Example 230, (rac)-1-[4-(2-Oxo-3,6-dihydro-2H-1,3,4-oxadiazin-5-yl)-2-(trifluoromethyl)phenyl]piperidine-3-carboxamide], in assay [1], the half-maximal inhibitory concentration (IC50) came to 7 nM. Besides, the pIC50 in assay [3] was 7.24; in assay [4], 7.00.

In the case of `C[C@@H](CCO)Nc1ccc(C2=NNC(=O)OC2)cc1C(F)(F)F` [Example 246, 5-[4-{[(2S)-4-Hydroxybutan-2-yl]amino}-3-(trifluoromethyl)phenyl]-3,6-dihydro-2H-1,3,4-oxadiazin-2-one], in assay [1], the 50% inhibitory concentration (IC50) is 12 nM. Moreover, the pIC50 in assay [3] was 7.02; in assay [4], 6.68.

With `O=C1NN=C(c2ccc(NCC3CCOC3)c(C(F)(F)F)c2)CO1` (racemic) [Example 245, (rac)-5-[4-{[(Oxolan-3-yl)methyl]amino}-3-(trifluoromethyl)phenyl]-3,6-dihydro-2H-1,3,4-oxadiazin-2-one], the IC50 in assay [1] came to 3 nM. In addition, the pIC50 in assay [3] was 7.12; in assay [4], 7.00.

On to `O=C1CCC(CNc2ccc(C3=NNC(=O)OC3)cc2C(F)(F)F)CN1` (racemic) [Example 247, (rac)-5-[4-{[(6-Oxopiperidin-3-yl)methyl]amino}-3-(trifluoromethyl)phenyl]-3,6-dihydro-2H-1,3,4-oxadiazin-2-one], for which the IC50 in assay [1] is 10 nM. Further, the results for the pIC50 in assay [3] and in assay [4] were 7.19 and 6.74, respectively.

As for `CCOC(C)CNc1ccc(C2=NNC(=O)OC2)cc1C(F)(F)F` (racemic) [Example 241, (rac)-5-{4-[(2-Ethoxypropyl)amino]-3-(trifluoromethyl)phenyl}-3,6-dihydro-2H-1,3,4-oxadiazin-2-one], in assay [1], the IC50 was found to be 6 nM. Further, the pIC50 was 7.18 in assay [3] and 6.89 in assay [4].

`N#CCCCNc1ccc(C2=NNC(=O)OC2)cc1C(F)(F)F` [Example 254, 4-[4-(2-Oxo-3,6-dihydro-2H-1,3,4-oxadiazin-5-yl)-2-(trifluoromethyl)anilino]butanenitrile]: in assay [1], the IC50 came to 2 nM. The pIC50 in assay [3] is 7.35; in assay [4] it was 7.51.

`CC1(C)CC1CNc1ccc(C2=NNC(=O)OC2)cc1C(F)(F)F` (racemic) [Example 248, (rac)-5-[4-{[(2,2-Dimethylcyclopropyl)methyl]amino}-3-(trifluoromethyl)phenyl]-3,6-dihydro-2H-1,3,4-oxadiazin-2-one]: the IC50 in assay [1] worked out at 6 nM. The pIC50 is 7.21 in assay [3] and 6.85 in assay [4].

`CC[C@@H](CO)Nc1ccc(C2=NNC(=O)OC2)cc1C(F)(F)F` [Example 228, 5-[4-{[(2S)-1-Hydroxybutan-2-yl]amino}-3-(trifluoromethyl)phenyl]-3,6-dihydro-2H-1,3,4-oxadiazin-2-one]: the IC50 in assay [1] amounted to 7 nM. For the same compound, the pIC50 is 6.40 in assay [3] and 6.04 in assay [4].
